Columns and labels:
[1] = system: Oligo(dA)-Oligo(dT); test: Binding of drug to duplex (NACS column, A365/A260); conditions: for Final D/N (CC-1065/nucleotide) Bound to Duplex: Oligo(dA)-Oligo(dT)
Procedure: (§1) Oligodeoxyribonucleotides were obtained by chemical synthesis through standard techniques on an automated synthesizer located in the Department of Veterinary Microbiology and Parasitology at Louisiana State University. Antisense MP and PS oligonucleotides were obtained from commercial sources, as was synthetic sense RNA. Poly(rA) was obtained from Sigma Chemical Co. CC-1065 was obtained from the Upjohn Company. Oligonucleotides (0.075 μmol-P each) were mixed in 0.36 ml 0.01 M Na cacodylate buffer, pH 7.2, with CC-1065 in dimethyl formamide (0.04 ml), or with dimethylformamide only. (Note that “μmol-P” denotes μmoles of phosphate; i.e., μmoles of nucleotide bases, rather than of oligonucleotides per se.) Incubations of complementary strands, with or without drug, were carried out at 37° C. for 4 hr. In the initial experiments, unbound drug was separated from nucleotide duplexes by ethanol precipitation. Equivalent results were obtained by trapping the oligonucleotides and CC-1065 on NACS-52 columns, and washing first with low-salt buffer and then with buffer containing 1M NaCl. Unbound CC-1065 was completely retained on the column. […] Samples prepared in this manner could be directly used for determination of binding of the drug to the nucleic acid (as measured by the A365/A260 ratio), with the extinction of CC-1065 absorbance at 365 nm taken as 48,000, and the extinction of the nucleic acid absorption at 260 nm based on its composition. Similar approaches were used with the drug U-71,184, with an assumed extinction of 32,000 at 365 nm.
(§2) When methyl phosphonate and synthetic RNA were used, the purities of the crude oligonucleotides were taken to be about 30%, based on the data sheet prepared by the supplier. (The remainder comprised primarily truncated sequences.) Appropriate excess amounts of these agents were included in the reactions to ensure helix formation. The corresponding sense or antisense oligonucleotides were maintained at 0.075 μmol-P in the reaction. […] Unpurified materials were used in these preliminary studies because of the relatively high cost of purified oligoribonucleotides. The majority of the contributions to A260 for these samples should be due to material that was not duplexed.
(§3) Table 1 summarizes binding data obtained from incubations of CC-1065 with nucleotides at greater than stoichiometric levels; the levels used in these experiments were 1 drug molecule/10 nucleotide residues, which is equivalent to 4 drug molecules/20-mer duplex. […] There seemed to be no difference in drug binding between antisense oligonucleotides with a PO and those with a PS backbone. Again, the 5′-AGTTA-3′ sequence on the sense strand was presumably the primary target, and the 3′-AAGTA-5′ on the antisense probe was presumably the secondary target.

[2] = system: Poly(rA)-Oligo(dT); test: Binding of drug to duplex (NACS column, A365/A260); conditions: for Final D/N (CC-1065/nucleotide) Bound to Duplex: Poly(rA)-Oligo(dT)
Procedure: as §1, §2, §3

[3] = system: RNA sense / DNA-PO antisense duplex; test: Binding of drug to duplex (NACS column); design: species or system equine infectious anemia retrovirus; conditions: saturation; initial CC-1065/nucleotide 0.1; 37° C., 4 hr
Procedure: (§4) Oligodeoxyribonucleotides were obtained by chemical synthesis through standard techniques on an automated synthesizer located in the Department of Veterinary Microbiology and Parasitology at Louisiana State University. Antisense MP and PS oligonucleotides were obtained from commercial sources, as was synthetic sense RNA. Poly(rA) was obtained from Sigma Chemical Co. CC-1065 was obtained from the Upjohn Company. Oligonucleotides (0.075 μmol-P each) were mixed in 0.36 ml 0.01 M Na cacodylate buffer, pH 7.2, with CC-1065 in dimethyl formamide (0.04 ml), or with dimethylformamide only. (Note that “μmol-P” denotes μmoles of phosphate; i.e., μmoles of nucleotide bases, rather than of oligonucleotides per se.) Incubations of complementary strands, with or without drug, were carried out at 37° C. for 4 hr. In the initial experiments, unbound drug was separated from nucleotide duplexes by ethanol precipitation. Equivalent results were obtained by trapping the oligonucleotides and CC-1065 on NACS-52 columns, and washing first with low-salt buffer and then with buffer containing 1M NaCl. […] Samples prepared in this manner could be directly used for determination of binding of the drug to the nucleic acid (as measured by the A365/A260 ratio), with the extinction of CC-1065 absorbance at 365 nm taken as 48,000, and the extinction of the nucleic acid absorption at 260 nm based on its composition. […]

[4] = system: RNA sense / DNA-PS antisense duplex; test: Binding of drug to duplex (NACS column); design: species or system equine infectious anemia retrovirus; conditions: saturation; initial CC-1065/nucleotide 0.1; 37° C., 4 hr
Procedure: as §4

[5] = system: Salmon Sperm DNA; test: Binding of drug to duplex (NACS column); conditions: saturation; initial CC-1065/nucleotide 0.1; 37° C., 4 hr
Procedure: as §4

[6] = system: single-stranded materials; test: Binding of drug to single strands; conditions: under the conditions used
Description: as §2

[7] = system: Oligo dA - Oligo dT; test: Duplex strand separation temperature (Tm); format: binding
Procedure: (§5) Samples for determining Tm were also obtained by the above procedures. […] Thus the effects of this agent on Tm were carried out with Distamycin in solution with the duplexes tested.
(§6) Tm's were determined on a Gilford 2400 Spectrophotometer set at 260 nm, with a 4-chamber Peltier-based temperature controller. Temperature was ramped linearly at 0.5° C./min. Absorbance data were acquired with a 12-bit A/D converter, and data were processed with Lotus 123W and SigmaPlot software. Tm values were determined from the plots as the midpoint of the thermal transitions.

[8] = system: Poly rA - Oligo dT (PO); test: Duplex strand separation temperature (Tm); format: binding
Procedure: as §5, §6

[9] = system: mRNA of a fragment of the env gene of EIAV; test: In vitro translation (wheat-germ extract, 35S-methionine); format: biochemical; conditions: 1.95 μg mRNA; antisense about 3 times mRNA sense; CC-1065 3 times antisense; scintillation spectrometry
Procedure: The in vitro translation studies were performed as follows. A fragment of DNA from the env gene of EIAV was transcribed with an SP-6 polymerase kit, and the resulting mRNA (approximately 600 bases long) was capped and isolated. The transcribed fragment included the target sequence 5′-[…]-3′ (SEQ ID NO. 3) (the CC-1065 binding site is underlined). The corresponding antisense sequence (using normal phosphodiester chemistry) was 5′-[…]-3′ (SEQ ID NO. 4). Translation was performed with a wheat-germ extract (Promega) in the presence of ^35S-methionine. The mRNA's were divided into approximately 2 μg aliquots, and treated according to the protocols listed for Table 3 below. Treated mRNA was separated from small molecules (such as DMSO and CC-1065) with a Sephadex 50-based NICK column. Translation was carried out in 25 μl of buffer containing the wheat germ translation system; the isolated mRNA; amino acids, including the labelled methionine; and RNAsin, an inhibitor of RNase. The proteins produced were divided into two aliquots. One aliquot was fractionated by SDS-PAGE, followed by autoradiography; and the other was analyzed by scintillation spectrometry. The concentrations of antisense oligomers and CC-1065 in the free-solution chemistries were relatively high compared to the sense target, to optimize duplex formation and drug binding. […] The following pairs were different at the P<0.05 level by Student's t-test (unpaired analysis): 1,5; 2,5; 3,4; 3,5; 4,5.

[10] = system: poly(dA)-poly(dT); conditions: reported, cited from earlier work
[11] = saturation, initial CC-1065/nucleotide 0.1, 37° C., 4 hr
[12] = CC-1065 initial D/N = 0.025, regions lacking CC-1065
[13] = CC-1065 initial D/N = 0.025, regions with CC-1065
[14] = CC-1065 initial D/N = 0.1, minimum Tm estimate

COc1c(O)c2c(c3cc(C(=O)N4CCc5c4c(O)c(OC)c4[nH]c(C(=O)N6CC7CC78C6=CC(=O)c6[nH]cc(C)c68)cc54)[nH]c13)CCN2C(N)=O (stereo not drawn) [CC-1065]
Final D/N (CC-1065/nucleotide) Bound to Duplex ([1]; Initial D/N 0.01): 0.008 ± 0.001 | Final D/N (CC-1065/nucleotide) Bound to Duplex ([1]; Initial D/N 0.025): 0.018 ± 0.0006 | Final D/N (CC-1065/nucleotide) Bound to Duplex ([1]; Initial D/N 0.04): 0.028 ± 0.006 | Final D/N (CC-1065/nucleotide) Bound to Duplex ([1]; Initial D/N 0.065): 0.058 ± 0.002 | Final D/N (CC-1065/nucleotide) Bound to Duplex ([1]; Initial D/N 0.10): 0.063 ± 0.002 | Approx. No. CC-1065 Bound/20 Base Pairs [1, 11]: ~2.5 | Final D/N (CC-1065/nucleotide) Bound to Duplex ([2]; Initial D/N 0.01): 0.003 ± 0.002 | Final D/N (CC-1065/nucleotide) Bound to Duplex ([2]; Initial D/N 0.025): 0.008 ± 0.004 | Final D/N (CC-1065/nucleotide) Bound to Duplex ([2]; Initial D/N 0.04): 0.011 ± 0.004 | Final D/N (CC-1065/nucleotide) Bound to Duplex ([2]; Initial D/N 0.065): 0.022 ± 0.004 | Final D/N (CC-1065/nucleotide) Bound to Duplex ([2]; Initial D/N 0.10): 0.028 ± 0.001 | Approx. No. CC-1065 Bound/20 Base Pairs [2, 11]: ~1 | Approx. No. CC-1065 Bound/20 Base Pairs [3]: ~1 | Approx. No. CC-1065 Bound/20 Base Pairs [4]: ~1 | Approx. No. CC-1065 Bound/20 Base Pairs [5]: ~2 | Binding to single-stranded materials [6]: found not to bind to single-stranded materials | Tm, lower transition of biphasic curve [7, 12]: 50 °C | Tm, higher transition of biphasic curve [7, 13]: 85 °C | Tm [7, 14]: ≥ 85.5 ± 0.7^4,5 °C | Duplex Strand Separation Temperature ([7]; Oligo dA / Oligo dT, drug-bound duplex (Table 6)): ≥ 85.5 ± 0.7^4 | Tm Elevation ([7]; dA-dT, highest level of binding obtained): 28.5 °C | Tm, lower transition of biphasic curve [8, 12]: 51 °C | Tm, higher transition of biphasic curve [8, 13]: 76 °C | Tm [8, 14]: ≥ 81.3 ± 0.6^4,5 °C | Duplex Strand Separation Temperature ([8]; Poly rA / Oligo dT (PO), drug-bound duplex (Table 6)): ≥ 81.3 ± 0.6^4 | Stabilization of duplexes ([8]; poly(rA)-oligo(dT)): strong stabilization | Tm Elevation ([8]; rA-dT, highest level of binding obtained): 28.3 °C | DPM S-35 ± standard error [9]: 133.040 ± 13.227 DPM | Tm ([10]; CC-1065 bound): ~100 °C | Increase in Tm ([10]; under the conditions of the experiment): over 30 °C
